Data as given in patent US9617212B2, “Isoindolin-1-ones as macrophage migration inhibitory factor (MIF) inhibitors” (Controlled Chemicals, Inc., priority 2013, dated 2017).
pIC50: −log10 of the molar value. Like-named read-outs stand apart in the source and are kept apart here.

Biological target: T1, Human MIF (MIF tautomerase) (Homo sapiens, UniProt P14174)
T1 construct: purchased ProSpec
T1 sequence (P14174 2-115 limits assumed): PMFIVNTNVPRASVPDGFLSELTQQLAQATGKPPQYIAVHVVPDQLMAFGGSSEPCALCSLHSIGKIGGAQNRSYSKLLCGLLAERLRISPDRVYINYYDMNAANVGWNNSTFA
Experiment: MIF Tautomerase Inhibitory Assay with L-Dopachrome Methyl Ester
Type: biochemical
Details: MIF tautomerase inhibition, L-dopachrome methyl ester substrate, pH 7.34, no pre-incubation
Method: MIF Tautomerase Inhibitory Assay with L-Dopachrome Methyl Ester
Assay Method (pH 7.34, 0.017-0.033% DMSO, 0.034% EtOH): A fresh stock solution of L-dopachrome methyl ester in MeOH was prepared at 55-65 mM through oxidation of L-3,4-dihydroxyphenylalanine methyl ester hydrochloride with sodium periodate according to the procedure described in WO9729635A1. MeOH was removed from 0.5 mL of the L-dopachrome methyl ester/MeOH solution (55-65 mM) under a stream of argon and the residue taken up in appropriate amount of water to prepare a substrate solution (7-10 mM). Active Human MIF (from ProSpec) ([…]) was dissolved in 675 μL 0.1% bovine serum albumin (BSA) in water, and the resultant MIF solution (1 volume) mixed with 55 volumes of Na2HPO4 buffer (50 mM, pH 7.34) to form a 265 ng/mL MIF working solution. MIF working solution (280 μL) or a no-MIF working solution (prepared by mixing 0.1% BSA (1 volume) with the aforementioned Na2HPO4 buffer (55 volumes)) was transferred to wells in a column of 8 wells on a 96-well plate in a Plate Reader (SPECTRAmax Plus 384, Molecular Devices), and 5 μL of H2O/DMSO (99/1) containing no inhibitor or an inhibitor (whose concentration was verified by HPLC). Without pre-mixing or pre-incubation, 10 μL freshly prepared L-dopachrome methyl ester/H2O solution (7-10 mM) was added to each well with a multi-pipet. The assay samples were mixed immediately by sucking up and expelling the contents of the wells three times with a multi-pipet. The absorbance (A1) at 475 nm was then recorded for each sample every 2 s for 3 min. After 5-6 min, the samples were monitored again for 3 min with a reading every two seconds at 475 nm (A2). It can be shown that when [substrate]<<Km, plots of Ln(A1−A2) versus time are linear with slopes m (Eq 1). IC50 values were estimated from Eq 2-5, the inhibitor concentration [I] in the assay mixture and values of m in the presence (mi), absence (mo) of the inhibitor, the value of m observed for the non-MIF blank (mn), the MIF concentration (e), and the specificity constant for the MIF catalyzed reaction (kcat/Km). Ln(A1−A2)=−mt (Eq 1) F=(mi−mn)/(mo−mn) (Eq 2) Wherein mo−mn=ekcat/Km (Eq 3) and mi−mn=(ekcat/Km)[…] (Eq 4) IC50=[I]F/(1−F) (Eq 5)
The compounds listed in Table 1, provided herein, were prepared via procedures identical or similar to those described in the Examples 1-85. The listed compounds were >95% pure by HPLC. Each listed compound yielded a mass spectrum consistent with its structure. Concentrations of MIF tautomerase inhibitors used in the assay were verified by HPLC and the extinction coefficients of the inhibitors. The designated relative potency of MIF tautomerase inhibitors is based on the IC50 as determined by the method described in Biochemical Assay as follows: A, IC50<1 μM; B, 1 μM≦IC50<5 μM; C, 5 μM≦IC50<10 μM; D, 10 μM≦IC50<50 μM; E, 50 μM≦IC50<200 μM.

[1] = relative potency class, read-out: IC50

| SMILES | pIC50 [1] | pIC50 (IC50, relative potency class) |
| --- | --- | --- |
| CNC(=O)[C@H](Cc1ccccc1)NC(C)C1CCC(CN2Cc3ccc(O)c(F)c3C2=O)CC1 (some centres unmarked) [drawing 99] | > 6.00 |  |
| CC(C)C[C@@H](NC(C)C1CCC(CN2Cc3ccc(O)c(F)c3C2=O)CC1)C(=O)O (some centres unmarked) [drawing 104] | > 6.00 |  |
| CC(NCC(=O)O)[C@H]1CC[C@H](CN2Cc3ccc(O)c(F)c3C2=O)CC1 (some centres unmarked) | > 6.00 |  |
| CC(=O)[C@H]1CC[C@H](CN2Cc3ccc(O)c(F)c3C2=O)CC1 | > 6.00 |  |
| COC(=O)[C@H]1CC[C@H](CN2Cc3ccc(O)cc3C2=O)CC1 | > 6.00 |  |
| O=C1c2cc(O)ccc2CN1C[C@H]1CC[C@H](COc2ccccc2F)CC1 | > 6.00 |  |
| COc1cccc(OC[C@H]2CC[C@H](CN3Cc4ccc(O)cc4C3=O)CC2)c1 | > 6.00 |  |
| COC(=O)[C@@H](C)NC(C)C1CCC(CN2Cc3ccc(O)c(F)c3C2=O)CC1 (some centres unmarked) [drawing 113] | > 6.00 |  |
| CC(CC1CCCCC1)N1Cc2ccc(O)cc2C1=O (centres unmarked) | 4.30 to 5.00 |  |
| CC(N[C@H](C)C(=O)O)C1CCC(CN2Cc3ccc(O)c(F)c3C2=O)CC1 (some centres unmarked) | > 6.00 |  |
| CC(NCCC(=O)O)C1CCC(CN2Cc3ccc(O)c(F)c3C2=O)CC1 (centres unmarked) | > 6.00 |  |
| CC(Oc1cccc(OCCN(C)C)c1)[C@H]1CC[C@H](CN2Cc3ccc(O)c(F)c3C2=O)CC1 (some centres unmarked) | > 6.00 |  |
| CC(O)[C@H]1CC[C@H](CN2Cc3cc(F)c(O)c(F)c3C2=O)CC1 (some centres unmarked) | > 6.00 |  |
| O=C1c2cc(O)ccc2CN1C[C@H]1CC[C@H](C(=O)OC2CCCCCC2)CC1 | 5.00 to 5.30 |  |
| O=C1c2cc(O)ccc2CN1CCc1ccccc1 | 5.00 to 5.30 |  |
| COC(=O)CCCCN1Cc2ccc(O)cc2C1=O | 5.30 to 6.00 |  |
| CC(=O)NC[C@H]1CC[C@H](CN2Cc3ccc(O)c(F)c3C2=O)CC1 | > 6.00 |  |
| CCOC(CCC1CCCCC1)[C@H]1CC[C@H](CN2Cc3ccc(O)cc3C2=O)CC1 (some centres unmarked) | > 6.00 |  |
| O=C1c2cc(O)ccc2CN1CC1CCCCCC1 | 5.30 to 6.00 |  |
| O=C1OCc2c(OC[C@H]3CC[C@H](CN4Cc5ccc(O)cc5C4=O)CC3)cccc21 | 5.30 to 6.00 |  |
| O=C1c2cc(O)ccc2CN1C[C@H]1CC[C@H](C(O)CC2CCCCC2)CC1 (some centres unmarked) | > 6.00 |  |
| CCOC(=O)CN1Cc2ccc(O)cc2C1=O | 3.70 to 4.30 |  |

| SMILES | pIC50 [1] | pIC50 (IC50, relative potency class) |
| --- | --- | --- |
| CC(Oc1cccc(OC[C@H](N)C(=O)O)c1)[C@H]1CC[C@H](CN2Cc3ccc(O)c(F)c3C2=O)CC1 (some centres unmarked) | > 6.00 |  |
| O=C1c2cc(O)ccc2CN1C[C@H]1CC[C@H](C(=O)N2CCOCC2)CC1 | 5.30 to 6.00 |  |
| CC(NCC(N)=O)[C@H]1CC[C@H](CN2Cc3ccc(O)c(F)c3C2=O)CC1 (some centres unmarked) | > 6.00 |  |
| CC(Oc1cccc(F)c1)[C@H]1CC[C@H](CN2Cc3cc(F)c(O)c(F)c3C2=O)CC1 (some centres unmarked) | > 6.00 |  |
| CC(C)(O)[C@H]1CC[C@H](CN2Cc3ccc(O)c(F)c3C2=O)CC1 | > 6.00 |  |
| CC(=O)N[C@@H](COc1cccc(OC(C)[C@H]2CC[C@H](CN3Cc4ccc(O)c(F)c4C3=O)CC2)c1)C(=O)O (some centres unmarked) | > 6.00 |  |
| CC(Oc1cccc(OCCN2CCOCC2)c1)[C@H]1CC[C@H](CN2Cc3ccc(O)c(F)c3C2=O)CC1 (some centres unmarked) | > 6.00 |  |
| COc1cccc(OC(CCC2CCCCC2)[C@H]2CC[C@H](CN3Cc4ccc(O)cc4C3=O)CC2)c1 (some centres unmarked) | 5.30 to 6.00 |  |
| C[C@@H](O)[C@H]1CC[C@H](CN2Cc3ccc(O)c(F)c3C2=O)CC1 | > 6.00 |  |
| CC(=O)N(C)CCOc1cccc(OC[C@H]2CC[C@H](CN3Cc4ccc(O)c(F)c4C3=O)CC2)c1 | > 6.00 |  |
| O=C1c2cc(O)ccc2CN1C[C@H]1CC[C@H](COC2CCCCC2)CC1 | 5.30 to 6.00 |  |
| O=C1c2cc(O)ccc2CN1C[C@H]1CC[C@H](COc2ccc(F)cc2)CC1 | > 6.00 |  |
| O=C1c2cc(O)ccc2CN1[C@H](CO)C1CCCCC1 | 4.30 to 5.00 |  |
| CC[C@@H](C(=O)OC(C)[C@H]1CC[C@H](CN2Cc3ccc(O)c(F)c3C2=O)CC1)c1ccccc1 (some centres unmarked) | > 6.00 |  |
| N[C@@H](COc1cccc(OC[C@H]2CC[C@H](CN3Cc4ccc(O)c(F)c4C3=O)CC2)c1)C(=O)O | > 6.00 |  |
| CC(=O)N[C@@H](COc1cccc(OC[C@H]2CC[C@H](CN3Cc4ccc(O)c(F)c4C3=O)CC2)c1)C(=O)O | > 6.00 |  |
| CC(=O)NC(C)[C@H]1CC[C@H](CN2Cc3ccc(O)c(F)c3C2=O)CC1 (some centres unmarked) | > 6.00 |  |
| O=C1OCc2cc(OC[C@H]3CC[C@H](CN4Cc5ccc(O)cc5C4=O)CC3)ccc21 | 5.30 to 6.00 |  |
| O=C(OC1CCCC1)C1CCC(CCN2Cc3ccc(O)cc3C2=O)CC1 (centres unmarked) [drawing 138] | 5.30 to 6.00 |  |
| CC(NCCO)C1CCC(CN2Cc3ccc(O)c(F)c3C2=O)CC1 (centres unmarked) | > 6.00 |  |
| O=C(OC1CCCCC1)c1ccc(CCN2Cc3ccc(O)cc3C2=O)cc1 | 5.30 to 6.00 |  |
| O=C1c2cc(O)ccc2CN1C[C@H]1CC[C@H](COc2cccc(O)c2)CC1 | > 6.00 |  |

| SMILES | pIC50 [1] | pIC50 (IC50, relative potency class) |
| --- | --- | --- |
| O=C1c2cc(O)ccc2CN1C[C@H]1CC[C@H](C(=O)OC2CCCCC2)CC1 | 5.30 to 6.00 |  |
| CC(N[C@@H](C)C(=O)O)[C@H]1CC[C@H](CN2Cc3ccc(O)c(F)c3C2=O)CC1 (single isomer, unassigned) | > 6.00 |  |
| CC(C)CNC(C)[C@H]1CC[C@H](CN2Cc3ccc(O)cc3C2=O)CC1 (some centres unmarked) | 5.30 to 6.00 |  |
| CC(N[C@H](CO)C(=O)O)C1CCC(CN2Cc3ccc(O)c(F)c3C2=O)CC1 (some centres unmarked) | > 6.00 |  |
| CC(OC(=O)Cc1ccccc1)[C@H]1CC[C@H](CN2Cc3cc(F)c(O)cc3C2=O)CC1 (some centres unmarked) |  | > 6.00 |
| NC[C@H]1CC[C@H](CN2Cc3ccc(O)c(F)c3C2=O)CC1 | 5.30 to 6.00 |  |
| CC(Oc1cccc(F)c1)[C@H]1CC[C@H](CN2Cc3ccc(O)c(F)c3C2=O)CC1 (some centres unmarked) | > 6.00 |  |
| CC(Oc1cccc(OC(F)(F)F)c1)[C@H]1CC[C@H](CN2Cc3ccc(O)c(F)c3C2=O)CC1 (some centres unmarked) | > 6.00 |  |
| CCC(C)OC(=O)[C@H]1CC[C@H](CN2Cc3ccc(O)cc3C2=O)CC1 (some centres unmarked) | 5.30 to 6.00 |  |
| O=C1c2cc(O)ccc2CN1C[C@H]1CC[C@H](CO)CC1 | 5.30 to 6.00 |  |
| CC(OC(=O)c1ccccc1)[C@H]1CC[C@H](CN2Cc3ccc(O)c(F)c3C2=O)CC1 (some centres unmarked) | > 6.00 |  |
| CC(Oc1cccc(F)c1)[C@H]1CC[C@H](CN2Cc3cc(F)c(O)cc3C2=O)CC1 (mixture of isomers) [drawing 63] | > 6.00 |  |
| COC(=O)CCCN1Cc2ccc(O)cc2C1=O | 5.00 to 5.30 |  |
| CN(C)C(=O)[C@H]1CC[C@H](CN2Cc3ccc(O)cc3C2=O)CC1 | 5.30 to 6.00 |  |
| O=C1OCc2ccc(OC[C@H]3CC[C@H](CN4Cc5ccc(O)cc5C4=O)CC3)cc21 | > 6.00 |  |
| O=C1c2cc(O)ccc2CN1C1CCCCCC1 | 5.00 to 5.30 |  |
| CC(=O)N(C)CCOc1cccc(OC(C)[C@H]2CC[C@H](CN3Cc4ccc(O)c(F)c4C3=O)CC2)c1 (some centres unmarked) | > 6.00 |  |
| CC(N[C@H](C)C(=O)O)[C@H]1CC[C@H](CN2Cc3ccc(O)c(F)c3C2=O)CC1 (single isomer, unassigned) | > 6.00 |  |
| COC(=O)[C@@H](CO)NC(C)[C@H]1CC[C@H](CN2Cc3ccc(O)c(F)c3C2=O)CC1 (single isomer, unassigned) | > 6.00 |  |
| O=C1c2cc(O)ccc2CN1C[C@H]1CC[C@H](COc2cccc(F)c2)CC1 | > 6.00 |  |
| CC(C)[C@@H](CO)NC(C)[C@H]1CC[C@H](CN2Cc3ccc(O)cc3C2=O)CC1 (some centres unmarked) [drawing 110] | > 6.00 |  |
